Entries after “also recorded” stand apart in the source; their conditions may differ. Read-outs that look alike come from different tables or passages of the source. A value given as a limit tells only on which side of the number the result lay.

In data set [1] the test system is tumor necrosis factor alpha (TNF-α) mediated cytotoxicity. As to conditions: in vitro, levels as low as; cited from earlier work.
The subject of data set [2] is adenovirus serotype 3. Description: Adenovirus plaque inhibition assay in A549 cells (Example 1). The class given is cell-based, Adenovirus serotype 3 (Ad3).
Data set [3] has as its system adenovirus serotype 3. Briefly: Plaque inhibition of adenovirus serotype 3 by ADPR and lithium chloride (Example 2). The class given is cell-based, Adenovirus serotype 3 (Ad3).
Data set [4] has as its system A549 cell monolayers. Particulars: human.
The subject of data set [5] is AsPC1—human pancreatic adenocarcinoma. Briefly: CellTiter-Glo cell viability assay, AsPC1. The class given is cell-based. Background: Cellular ATP, detected with luciferase, serves as a proxy for viable cell number.
The subject of data set [6] is H1437—human, lung adenocarcinoma, non-small cell lung cancer. Briefly: CellTiter-Glo cell viability assay, H1437. The class given is cell-based.
Data set [7] concerns U87-MG—human, brain glioblastoma. Briefly: CellTiter-Glo cell viability assay, U87-MG. The class given is cell-based.
Data set [8] relates to MV411—human, myelomonocytic leukemia. Description: CellTiter-Glo cell viability assay, MV411. The class given is cell-based.
Data set [9] has as its system A549 cell monolayers.
Data set [10] relates to Adenovirus 3. Description: Plaque inhibition by dilithium ADPR, Ad3 in A549 cells (Example 5). The class given is cell-based, Adenovirus 3 (Ad3). As to conditions: 4, 2, 1 and 0.5 mg/mL. The procedure: (§1) Dilithium ADPR, 150 mg powder, was stored in a glass vial (“Sample A”) at 4° C. in the dark until use. On the day of assay, Sample A was solubilized to 200 mg/ml in 750 μL water for irrigation, then further diluted to target concentrations. […] Solubilized Sample A was tested for plaque inhibitory properties against Adenovirus 3 and Adenovirus 5 (Ad3 & Ad5).
(§2) Solubilized Sample A was diluted to 4 mg/mL, 2 mg/mL, 1 mg/mL and 0.5 mg/mL in Virus Growth Media (DMEM, 2% Fetal Bovine Serum (FBS) and antibiotic, antimycotic).
(§3) A549 cells were plated 7×10^4 cells per well in 6-well plates. After 18 hours, growth media was removed and 1 mL of each sample mixtures was added per well. After incubating for one hour at 37° C., approximately 50-75 plaque forming units Ad3 and separately Ad5 were added per well. Virus adsorbed to the cells for two hours and then media was aspirated from the monolayers and replaced with Virus Growth Media containing Sample A dilutions of 0, 0.5, 1.0, 2.0, and 4.0 mg/mL, and agarose.

In data set [11] the test system is Adenovirus 5. Description: Plaque inhibition by dilithium ADPR, Ad5 in A549 cells (Example 5). The class given is cell-based, Adenovirus 5 (Ad5). Particulars: 4, 2, 1 and 0.5 mg/mL. As for the experimental part:
as §1, §2, §3

For data set [12], the system named is A549 cells. Description: Thinning of the A549 monolayer in the plaque assay (Example 5). The class given is cell-based, human. As for the experimental part: as §3
Ad3 and Ad5 plaque size and number were reduced by Sample A at 4 mg/mL and 2 mg/mL. […] The thin monolayer made it hard to delineate plaques. Very few plaques were visible as compared to control. […] Mean plaque counts at Sample A concentrations were as follows: • Ad3: 4 mg/mL-29; 2 mg/mL-10; 1 mg/mL-44; 0.5 mg/mL-54; 0 mg/mL-55 • Ad5: 4 mg/mL-7; 2 mg/mL-7; 1 mg/mL-25; 0.5 mg/mL-53; 0 mg/mL-65 Conclusion

Data set [13] relates to A549 (human alveolar adenocarcinoma) cell culture. Description: MTT incorporation in A549 cell culture (Example 8). The class given is cell-based. As to conditions: for Average MTT incorporation as measured by OD560: 48 hours. The procedure:
ADPR, sodium Salt, (Sigma A0752), was tested in A549 (human alveolar adenocarcinoma) cell culture to determine its effect on replication. ADPR was evaluated at five concentrations by incubation for 48 hours with A549 cells (previously grown to a monolayer) at 37° C. After incubation, MTT (3-(4,5-dimethylthiaz ol-2-yl)-2,5-diphenyltetrazolium bromide) dye was added to each well and live cells were measured by blue dye incorporation.

Data set [14] relates to A549 cell monolayers. Briefly: Toxicity score on A549 cell monolayers (Example 1).
Data set [15] deals with A549 cell monolayers. Briefly: Toxicity score on A549 cell monolayers (Example 2).
Data set [16] has as its system Adenovirus serotype 5 (Ad5). Briefly: Viral keratoconjunctivitis model, modified McDonald-Shadduck scoring (Example 6). The class given is in vivo, Oryctolagus cuniculus (New Zealand White rabbits). The source says: • Species: Oryctolagus cuniculus • Strain: New Zealand White rabbits • Sex: Female • Age: Commensurate with weight • Weight: Approximately 2.5 to 3.0 kilograms at study start • Number: 8 (naïve) • Method of Identification: Ear tag and cage label • Minimum Acclimation: 5 days
• 1. Inoculum—Adenovirus serotype 5 (Ad5) • (a) Physicochemical Characteristics and Composition Description: Virus propagated in A549 cells in DMEM with 8% fetal bovine serum. Cells and supernatant harvested, sonicated, and clarified by low speed centrifugation. Infectious titer by TCID50: 5.0×109 plaque-forming-units (PFU) per mL. • (b) Storage Condition: frozen at −60 to −80° C. • 2. Test Article—Dilithium ADPR • (a) Molecular weight: approximately 571.18 • (b) Storage Condition: Refrigerated at 2-8° C. • 3. Control Vehicle • (a) Composition: 0.31% sodium chloride, 0.1% sodium tetraborate, 1% boric acid, 0.35% polyethylene glycol 300 (PEG-300) in deionized (DI) water • (b) Storage Condition: Refrigerated at 2° C.-8° C. • 4. Test/Control Article Preparation • (a) Ad5 was supplied in a single aliquot for both days of inoculation. Immediately prior to the first viral inoculation on Day −1, the virus was thawed and brought to room temperature. 0.05 mL (50 μL) of the 5.0×10^9 PFU Ad5/mL solution was diluted with 1.5 mL of Dulbecco's Modified Eagle Medium (DMEM) to create a 1.61×10^8 PFU Ad5/mL solution. After the first inoculation on Day −1, the remaining virus solution was stored refrigerated at 2-8° C. until the second inoculation on Day 0. Virus solution was not re-frozen. • (b) Vehicle: 55.8 mg sodium chloride, 18 mg of sodium tetraborate, 180 mg of boric acid, and 63 mg of PEG-300 were weighed out into a vial. 14 mL DI water was added, and vial contents were swirled, vortexed, and/or sonicated if needed until a clear solution is formed. The pH of the solution was tested using pH tester strips and adjusted to 7.0-7.2, if necessary, using sodium hydroxide (NaOH) or additional boric acid. The volume was then brought up to 18 mL with additional DI water to make a 0.31% sodium chloride, 0.1% sodium tetraborate, 1% boric acid, 0.35% PEG-300 solution. The vial contents were sterile filtered through a 0.2 or 0.22 μm filter. • (c) Dilithium ADPR—High Dose: 240 mg of dilithium ADPR was weighed out into a vial. 12 mg of sodium tetraborate, 120 mg of boric acid, and 42 mg of PEG-300 were weighed out into a separate vial. 7 mL DI water was added, and vial contents were swirled, vortexed, and/or sonicated if needed until a clear solution is formed. The solution was transferred to the vial containing dilithium ADPR. The volume was brought up to […] with DI water, and vial contents were swirled, vortexed, and/or sonicated if needed until a clear solution is formed. […]

[17] abbreviates: AsPC1, 72 hours treatment, average of two values.
Where [18] appears, read: H1437, 72 hours treatment, average of two values.
Setting [19] is: U87-MG, 72 hours treatment, average of two values.
Setting [20] is: MV411, 72 hours treatment, average of two values.
Setting [21] is: 0.5%, 1% and 2% topical TID, Day 3 and Day 7 compared to baseline on Day 1, p<0.01.

For the molecule `Nc1ncnc2c1ncn2[C@@H]1O[C@H](COP(=O)(O)OP(=O)(O)OC[C@H]2OC(O)[C@H](O)[C@@H]2O)[C@@H](O)[C@H]1O` (some centres unmarked) [ADPR, 5′-adenosine diphosphate ribose], the “ADPR level with measurable inhibition of TNF-α mediated cytotoxicity” value in data set [1] is on record as 5 mg/L.

Regarding `Nc1ccn(C[C@@H](CO)OCP(=O)(O)O)c(=O)n1` [Cidofovir], the “Plaque Counts” value in data set [2] (20 μM Cidofovir) is 39. Also, the Plaque appearance result in data set [2] (100 μM Cidofovir) is “pinpoint”; in data set [3] (3 μM Cidofovir), “small plaques”; in [3] (33 μM Cidofovir), “Pinpoint plaques”. In addition, the “Plaque size and number” value in data set [2] (cidofovir, as concentrations were increased (20, 100 μM)) is recorded as “decreased”.

`NC(=O)c1cccnc1` [Compound N, Nicotinamide]: the Plaque appearance entry in data set [2] (600 μg/ml nicotinamide alone) is on record as “much larger”. Further, in data set [2] (Compound N 6000 μg/ml, 0 μg/ml Compound A, Ad3, A549), the “Plaque Counts” value is on record as “Toxic”. The “Toxicity Scores (T value)” value in data set [4] (60 μg/ml) is given as “T = 0”; in data set [4] (600 μg/ml), “T = 2”; in data set [4] (6000 μg/ml), “T = 3”.

By IC50 is commonly meant the midpoint of a concentration-inhibition curve. Low values mean higher potency, high ones lower potency. For the molecule `CCc1c2c(nc3ccc(O)cc13)-c1cc3c(c(=O)n1C2)COC(=O)[C@]3(O)CC` [SN38], the IC50 in data set [5] (setting [17]) stood at 1.5 µM; in [6] (setting [18]) it was 0.2 µM; in [7] (setting [19]), 1.2 µM; in data set [8] (setting [20]), 1.17 µM.

For `[Cl-].[Li+]` [Sample L, Lithium Chloride], the Plaque appearance entry in data set [3] is reported as “much larger; also recorded: very large plaques”. Further, the IC50 was > 3000 µM in data set [5], > 3000 µM in data set [6], > 3000 µM in [7] and > 6000 µM in data set [8]. Also, the “Toxicity Scores (T value)” value in data set [9] was “T = 0”.

As for “Adenosine 5′-diphosphoribose Sodium Salt [Compound A]”, the “Plaque size as compared to control” value in [2] (Compound A at 2000 and 6000 μg/ml) is on record as “reduced”; in data set [3] (Sample A at 0.44, 1.33 and 4.0 mM), “reduced”. Moreover, the “Plaque size and number” value in data set [10] and in data set [11] was “reduced” each time. Besides, the “Monolayer compared to cell control wells” value in [12] (1 mg/mL and 0.5 mg/mL) is “slight thinning”. In addition, the “Monolayer compared to control wells” value in data set [12] (4 and 2 mg/mL) is recorded as “moderate thinning”. The “Average MTT incorporation as measured by OD560” value in [13] (1.5 mg/mL) was found to be 0.62±0.08; in data set [13] (3 mg/mL), 0.61±0.09; in data set [13] (6 mg/mL), 0.72±0.04; in data set [13] (12 mg/mL), 0.69±0.01; in data set [13] (24 mg/mL) it was 0.55±0.02. Further, the “Effect on MTT incorporation” value in data set [13] (at 24 mg/mL) is “mild reduction”; in [13] (up to 12 mg/mL (equal to 21 mM)), “did not reduce”. Besides, the “Toxicity Scores (T value)” value in data set [14] (Compound A 2000 μg/ml), in data set [14] (Compound A 6000 μg/ml), in data set [15] (Sample A 0.44 mM), in [15] (Sample A 1.33 mM) and in data set [15] (Sample A 4.0 mM) was “T = 0” in each case.

With Dilithium ADPR, the “Composite modified McDonald-Shadduck score (total of all sub scores)” value in data set [16] (setting [21]) was “significantly improved; also recorded: significant improvement”. Also, the Subscore conjunctival congestion entry in data set [16] (setting [21]) is “improvement that was statistically significant”. Moreover, the “Subscore surface area of corneal involvement” value in data set [16] (0.5%, 1% and 2% topical TID, Day 3 and Day 7 compared to baseline on Day 1, p<0.05) is recorded as “improvement that was statistically significant”. Besides, the “Reduction in the composite score” value in [16] (all doses (0.5%, 1.0% and 2.0%), by Day 7) is reported as > 80%. In addition, the IC50 in [5] (setting [17]) came out at 570 µM; in [6] (setting [18]) it was 531 µM; in data set [7] (setting [19]), 1560 µM; in data set [8] (setting [20]), 323 µM.

These data come from patent US12370209B2, “Methods for the use of 5′-adenosine diphosphate ribose (ADPR)” (Invirsa, Inc., priority 2016, dated 2025).
